From ChEMBL document CHEMBL1201862, “PubChem BioAssay data set” (2004)
Blank lines part the entries; values can stand above or below the compound they belong to. Calls of active or inactive are those of the source.

Key:
HEK293 = test: inhibitors of LMP1-driven NF-kB reporter, dose response, cell-based, HEK293, luciferase, cherry-pick (AID 588343); type: functional; conditions: Homo sapiens
[1] = CRF-BP/CRF-R2 complex antagonists, dose response, cell-based, uHTS hits, 384-well (AID 651639); type: functional, Homo sapiens; conditions: read-out: IC50_Mean
[2] = target: T1, Corticotropin-releasing factor receptor 2/Corticotropin-releasing factor-binding protein (Homo sapiens, UniProt P24387+Q13324); test: activators of CRF receptor 2 with binding protein – uHTS hits, confirmation (AID 602473); type: functional; conditions: read-out: EC50_Mean
T1 sequence (Q13324 whole entry): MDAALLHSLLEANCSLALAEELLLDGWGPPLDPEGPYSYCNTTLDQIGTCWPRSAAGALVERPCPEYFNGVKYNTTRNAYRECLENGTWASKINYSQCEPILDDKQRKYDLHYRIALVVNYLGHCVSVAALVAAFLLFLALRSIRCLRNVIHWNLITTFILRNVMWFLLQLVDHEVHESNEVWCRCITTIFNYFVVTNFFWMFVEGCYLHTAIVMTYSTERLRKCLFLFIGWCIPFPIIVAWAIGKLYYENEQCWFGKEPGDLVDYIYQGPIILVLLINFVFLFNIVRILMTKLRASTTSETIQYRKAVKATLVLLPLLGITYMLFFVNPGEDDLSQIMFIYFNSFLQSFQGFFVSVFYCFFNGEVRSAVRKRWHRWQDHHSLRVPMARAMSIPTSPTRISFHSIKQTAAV
T1 sequence (P24387 whole entry): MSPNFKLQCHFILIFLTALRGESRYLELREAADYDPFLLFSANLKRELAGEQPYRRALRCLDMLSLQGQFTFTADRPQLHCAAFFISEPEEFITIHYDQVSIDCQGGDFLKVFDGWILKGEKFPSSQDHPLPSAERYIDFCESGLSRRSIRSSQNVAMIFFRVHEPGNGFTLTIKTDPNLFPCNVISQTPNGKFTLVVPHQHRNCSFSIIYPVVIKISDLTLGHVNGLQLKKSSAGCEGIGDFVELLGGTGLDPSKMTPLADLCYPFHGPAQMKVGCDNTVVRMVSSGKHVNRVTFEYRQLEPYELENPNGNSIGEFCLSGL

[3] = target: T1, Corticotropin-releasing factor receptor 2/Corticotropin-releasing factor-binding protein; test: Dose Response confirmation of uHTS hits for small molecule antagonists of the CRF-binding protein and CRF-R2 receptor complex.; type: functional; conditions: read-out: IC50_Mean
Cytochrome P450 2C9 = Cytochrome P450 2C9 (Homo sapiens, UniProt P11712)
Cytochrome P450 2C9, sequence (P11712 whole entry): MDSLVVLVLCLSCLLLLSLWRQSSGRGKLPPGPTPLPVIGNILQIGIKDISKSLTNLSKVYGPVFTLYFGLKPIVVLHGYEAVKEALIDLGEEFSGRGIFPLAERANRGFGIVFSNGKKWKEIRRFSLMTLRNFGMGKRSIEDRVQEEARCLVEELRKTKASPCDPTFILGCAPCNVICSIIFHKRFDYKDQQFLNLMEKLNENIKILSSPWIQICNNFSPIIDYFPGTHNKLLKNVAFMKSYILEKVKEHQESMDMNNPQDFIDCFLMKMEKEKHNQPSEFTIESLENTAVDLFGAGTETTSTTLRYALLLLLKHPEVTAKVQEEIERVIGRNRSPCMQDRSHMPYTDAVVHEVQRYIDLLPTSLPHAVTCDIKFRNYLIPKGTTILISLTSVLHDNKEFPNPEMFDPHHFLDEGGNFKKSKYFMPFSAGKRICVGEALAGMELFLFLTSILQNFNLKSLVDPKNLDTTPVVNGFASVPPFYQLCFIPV

Cytochrome P450 1A2 = target: T2, Cytochrome P450 1A2 (Homo sapiens, UniProt P05177);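 note: PubChem cytochrome P450 panel assay, CYP1A2 panel member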
T2 sequence (P05177 whole entry): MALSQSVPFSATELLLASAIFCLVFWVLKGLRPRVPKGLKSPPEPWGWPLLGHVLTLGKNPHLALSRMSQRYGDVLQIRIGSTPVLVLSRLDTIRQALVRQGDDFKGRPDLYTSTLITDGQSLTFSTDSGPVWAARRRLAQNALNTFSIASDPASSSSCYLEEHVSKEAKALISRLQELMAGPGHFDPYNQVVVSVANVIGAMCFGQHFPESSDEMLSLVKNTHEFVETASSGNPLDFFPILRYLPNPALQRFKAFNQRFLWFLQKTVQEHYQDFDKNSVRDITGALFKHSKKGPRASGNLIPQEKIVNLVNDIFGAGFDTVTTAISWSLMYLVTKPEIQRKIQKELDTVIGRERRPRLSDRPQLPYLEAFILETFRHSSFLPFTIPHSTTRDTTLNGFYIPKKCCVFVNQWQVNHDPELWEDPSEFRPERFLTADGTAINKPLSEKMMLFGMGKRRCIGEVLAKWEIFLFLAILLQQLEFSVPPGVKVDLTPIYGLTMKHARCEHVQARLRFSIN

[4] = target: NAD-dependent protein deacylase sirtuin-5, mitochondrial (Homo sapiens, UniProt Q9NXA8); test: SIRT5 desuccinylase inhibitors, dose response, biochemical, fluorescence imaging, cherry-pick, set 5 (AID 720591);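 note: desuccinylation of succinyl peptide AMC substrate read as fluorescence after trypsin release; potency of inhibitors that lower fluorescence and may act on trypsin instead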
NAD-dependent protein deacylase sirtuin-5, mitochondrial, sequence (Q9NXA8 whole entry, the tested form may be a part): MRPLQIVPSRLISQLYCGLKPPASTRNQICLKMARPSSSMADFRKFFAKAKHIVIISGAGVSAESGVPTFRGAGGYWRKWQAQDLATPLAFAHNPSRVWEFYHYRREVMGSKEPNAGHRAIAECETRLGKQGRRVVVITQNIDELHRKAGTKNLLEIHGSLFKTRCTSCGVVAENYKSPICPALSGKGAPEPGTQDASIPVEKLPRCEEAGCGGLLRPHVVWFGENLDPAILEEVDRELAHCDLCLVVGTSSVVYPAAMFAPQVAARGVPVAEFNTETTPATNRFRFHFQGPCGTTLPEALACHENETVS

[5] = inhibitors of clade B AD8 Env fusion, dose response, cell-based, cherry-pick (AID 652062); type: functional;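 note: luciferase signal from cell-cell fusion driven by HIV-1 clade B AD8 Env; potency is for inhibitors of fusion seen as a drop in luminescence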
[6] = CEM21 lymphoblast cell cytotoxicity, dose response, cytotoxicity control for viral fusion inhibitor project, CellTiter-Glo luminescence, cherry-picked (AID 652042); type: functional, cell-based;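 note: potency for signal decrease meaning cytotoxicity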
[7] = ZM109 Env clade C HIV-1 fusion inhibitors, dose response, HeLa effector, CEM target cells, luciferase, cherry-pick (AID 652058); type: functional, cell-based
[8] = off-target signal loss in HeLa-CEM21 co-culture – HeLa F-luc CTL cells, cherry-picked, counter-screen for HIV-1 Env fusion inhibitor project, dose response (AID 652040); type: functional, cell-based;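 note: potency for signal decrease marking cytotoxic or nonspecific inhibition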
[9] = inhibitors of HIV Env-driven cell fusion, dose response, cherry-pick (AID 652057); type: functional, cell-based
Vero = Vero cell cytotoxicity, cytotoxicity control for flavivirus capping enzyme inhibitors (AID 588742); type: functional; conditions: Chlorocebus sabaeus

Structure (SMILES): Cc1ccc(OCC(=O)NNC(=S)NC(=O)C2CCCCC2)c(C)c1
AC50 (HEK293): 39.5 µM (active)

IC50 [1]: > 20 µM (inactive)
EC50 [2]: > 53 µM (inactive)
IC50 [3]: 5.69 µM (active)
Structure (SMILES): Cc1ccc(NC(=O)CSc2nnc(Cn3cnc4ccccc43)o2)c(C)c1

AC50 (Cytochrome P450 2C9): inconclusive
AC50 (Cytochrome P450 1A2): 2.51 µM (inconclusive)
Structure (SMILES): CCCCN(C)C(=O)c1coc(=O)c2ccccc12

Structure (SMILES): O=C1c2ccccc2C(=O)c2cc(N3CCCCC3)ccc21
AC50 (HEK293): 1.3 µM (active)

AC50 [4]: > 30 µM (inactive)
Structure (SMILES): COc1ccccc1CNC(=O)C1CCC(CNS(=O)(=O)c2ccc(F)cc2)CC1 (centres undefined)

Structure (SMILES): COc1ccc(S(=O)(=O)N2CCN(C(S)=NCC3CCCO3)CC2)cc1OC (centres undefined)
AC50 (HEK293): 268 µM (active)

Structure (SMILES): COc1cc(OC)nc(Nc2nc(C(N)COCc3ccccc3)cs2)n1 (centres undefined)
AC50 [5]: 5.29 µM (active)
AC50 [6]: 28.3 µM (active)
AC50 [7]: 4.17 µM (active)
AC50 [8]: 4.69 µM (active)
AC50 [9]: 3.75 µM (active)

Structure (SMILES): Cc1ccc(-c2ccc3c(c2)O[C@H](CN(C)Cc2cccnc2)[C@@H](C)CN([C@H](C)CO)S3(=O)=O)cc1
AC50 [5]: 23.8 µM (active)
AC50 [6]: 13.7 µM (active)
AC50 [9]: 27 µM (active)

AC50 [4]: > 30 µM (inactive)
Structure (SMILES): O=C(c1[nH]c(C(F)(F)F)nc1-c1ccccc1)N1CCCN(Cc2ccc(F)cc2)CC1

Structure (SMILES): C/C(=N\NC(=O)CNc1cccc2ccccc12)c1ccc(Br)s1
CC50 (Vero): > 40 µM (active)
